“Also recorded” adds a separate entry of the source. Read-outs that look alike come from different tables or passages of the source. A value given as a limit tells only on which side of the number the result lay.

The source of these data is PMC12484522, “Neuroprotective effects of chemical constituents from Nicotiana tabacum L. in Parkinson’s disease” (Natural Products and Bioprospecting, 2025).

The target of data set [1] is T1, MAO-B (Homo sapiens, UniProt P27338).
T1 sequence (P27338 1-520): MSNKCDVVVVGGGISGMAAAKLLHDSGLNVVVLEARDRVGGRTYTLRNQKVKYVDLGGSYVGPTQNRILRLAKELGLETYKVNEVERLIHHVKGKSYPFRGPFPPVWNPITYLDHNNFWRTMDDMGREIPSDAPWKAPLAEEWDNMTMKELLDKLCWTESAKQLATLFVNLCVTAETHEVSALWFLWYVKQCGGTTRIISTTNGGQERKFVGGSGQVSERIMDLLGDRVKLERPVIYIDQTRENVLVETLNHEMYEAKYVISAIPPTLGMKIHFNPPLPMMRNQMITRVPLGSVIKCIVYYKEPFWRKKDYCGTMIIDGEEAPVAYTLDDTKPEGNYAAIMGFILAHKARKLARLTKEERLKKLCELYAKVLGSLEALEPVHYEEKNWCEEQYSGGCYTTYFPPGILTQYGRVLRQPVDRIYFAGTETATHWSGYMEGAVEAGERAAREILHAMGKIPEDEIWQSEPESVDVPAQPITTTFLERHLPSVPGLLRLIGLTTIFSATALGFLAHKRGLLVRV
Nature of the data set: Kinetic studies of MAO-B inhibition (Lineweaver–Burk plots). Type of data set: biochemical. As to the method:
The kinetic study of MAO-B inhibition was the Lineweaver–Burk plot, which was performed using the Lineweaver–Burk curve method. […] Kinetic characterization of their MAO-B inhibition was recorded 20 min after initiation. Constants Kis and Ki were calculated using the Lineweaver–Burk plots.

The target of data set [2] is T1, MAO-B. As to the kind of experiment: MAO-B inhibition assay (kynuramine, fluorescence). In kind it is biochemical.
Method: In preparing the microplates, 50 μL of MAO-B (2.5 U/mL) was combined with 100 μL of the test compounds at different concentrations. This mixture was incubated at 37 °C for 10 min. […] Next, 50 μL of kynuramine (0.2 mM) sourced from Macklin in Shanghai, China, was added to the mixture. The resulting mixture was incubated at 37 °C for an additional 30 min. The reaction was halted by adding 80 μL of 2 N NaOH. Ultimately, the enzyme activity was measured using a microplate reader, with the excitation and emission wavelengths set at 310 nm and 400 nm, respectively.
The test system of data set [3] is MAO-B over MAO-A. The settings on record: cited from earlier work.
The target of data set [4] is murine MAO-B. Further details: method as in PMID 26796202. Conditions: cited from earlier work.
For data set [5], the target named is human MAO-B. The arrangement: method as in PMID 26796202. Conditions: selective and reversible inhibition; cited from earlier work.
Data set [6] in a line: ABTS+ radical scavenging assay. The settings on record: for IC50: read-out: ABTS+ IC50 (μM) ± SD. As to the method: Various concentrations of the compounds (60 μL each) were then combined with 150 μL of the diluted ABTS^+ solution. The reaction was maintained in the dark at 30 °C for 6 min. Afterwards, the absorbance was determined at 734 nm with a microplate reader. The calculation of ABTS radical scavenging activity followed the same method as for DPPH radical scavenging activity. IC50 values were determined using GraphPad Prism 7.0, and all tests were conducted in triplicate.

Data set [7] relates to dopamine levels and striatal DOPAC. Further details: method as in PMID 26796202. The settings on record: intraperitoneal, 80 mg/kg; cited from earlier work.
The test system of data set [8] is PC12 cell. Nature of the data set: Cytotoxicity experiment on PC12 cells. Conditions: 0.5–100 μM. Type of data set: cell-based.
Data set [9] relates to 6-OHDA-induced PC12 cells. As to the kind of experiment: Neuroprotective effect in 6-OHDA-induced PC12 cells (CCK-8 cell viability). In kind it is cell-based. The protocol: Two-dimensional (2D) cell culture models were used for performing cell viability assays. Approximately 10,000 PC12 cells (Fenghui, Changsha, China) were seeded into each well of a 96-well plate. The cells underwent pre-treatment with the test compounds for 2 h at 37 °C. […] The plate was incubated at 37 °C for 1 h after adding 10 μL of CCK-8 solution (ProteinTech, Chicago, USA) to each well. Then, each well's optical density (OD) was measured at 450 nm using a multimode microplate reader (Waltham, MA, USA).

Data set [10] is described as follows: DPPH radical scavenging assay. Conditions: for IC50: read-out: DPPH IC50 (μM) ± SD. As to the method: The antioxidative capacity of the obtained compounds was carried out through DPPH radical scavenging assays and ABTS assay (Macklin, Shanghai, China) with some modifications, and Vitamin C was used as the positive control. In the DPPH assay, 60 μL of the isolates at varying concentrations were mixed with 100 μL of 100 μM DPPH solution in ethanol in a 96-well microplate. The mixture was shaken for 10 s and then allowed to sit in darkness at 30 °C for 5 min. Subsequently, the absorbance was determined using a microplate reader at a wavelength of 517 nm. The radical-scavenging activity of the compounds was assessed using the formula RSA (%) = [(AB-AA)/AB] × 100%, where AA was the absorbance of the sample and AB was the absorbance of the blank sample. The IC50 value was calculated with GraphPad Prism 7.0, and all experiments were conducted in triplicate.
(In general: DPPH is a stable violet radical that fades when it is reduced.)

The mark [11] stands for this setting: MAO-B, dose–response, read-out: IC50 (μM) ± SD.
[12] abbreviates: MAO-B, 50 μM, read-out: Inhibition rate ± SD (%) (50 μM).

The term IC50 denotes the concentration at which inhibition is half-maximal. Take `CCC1=C(/C=C/C(O)CCCCCCCC(=O)OC)CCC1=O` (stereo not drawn) [10/11, phytoprostanes B1 type II]: the “Inhibition mechanism against MAO-B” value in data set [1] was “competitive MAO-B inhibitors; also recorded: competitive inhibition mechanism”. For the same compound, in [2] (setting [11]), the IC50 worked out at 37.7 ± 1.57 µM.

A word on the inhibition: it is the drop in the measured response relative to a control, in per cent. Regarding `CC(=O)/C=C/C/C(C)=C/CC/C(C)=C/CC/C(C)=C/CC/C(C)=C/CO` [Compound 1, Nicotiazanorpenoid A], the inhibition at 50 µM in data set [2] (setting [12]) stood at 15.4 ± 8.16%.

Take `C=C(C)/C=C/[C@@H](CC/C(C)=C/CC/C(C)=C/C=O)C(C)C` [Compound 2, 2,6,11,13-tetradecatetraenal-3,7,13-trimethyl-10-(1-methylethyl)]: the inhibition at 50 µM in [2] (setting [12]) is 11 ± 3.99%.

By Ki is commonly meant the dissociation constant of the complex between target and ligand, obtained from inhibition or displacement. For `COc1cc2ccc(=O)oc2cc1O` [Compound 3, scopoletin], the “Selectivity for MAO-B over MAO-A” value in data set [3] is given as “approximately 3.5 fold”. For the same compound, the Ki in data set [4] was 22 µM; in [5] it was 20.7 µM; in [1] (MAO-B, read-out: Ki value (equilibrium constant for inhibitor-enzyme binding)), 78.8 µM. In data set [1], the “Inhibition mechanism against MAO-B” value is “non-competitive inhibitor”. For the same compound, the “ABTS+ RSA ± SD (50 μM)” value in [6] is given as 68.91 ± 1.75%. In addition, the IC50 in data set [6] came to 27.7 ± 1.2 µM; in data set [2], 40.2 ± 1.21 µM. Further, the Dopamine levels entry in [7] is on record as “significantly elevated”. The “Striatal metabolite 3,4-dihydroxyphenylacetic acid (DOPAC)” value in data set [7] is “reducing”.

`CC1=CC(=O)CC(C)(C)[C@H]1CC[C@@H](C)O` [Compound 4, blumenol C]: in [2] (setting [12]), the inhibition at 50 µM was 16.5 ± 7.04%.

Turning to `CC1=CC(=O)CC(C)(C)[C@H]1/C=C/[C@@H](C)O` [Compound 5, (6R,9S)-3-oxo-α-ionol], in data set [2] (setting [12]), the inhibition at 50 µM amounted to 24 ± 8.05%.

Turning to `OCCc1ccccc1` [Compound 7, 2-phenylethanol], the inhibition at 50 µM in data set [2] (setting [12]) is 14.4 ± 4.04%.

As for `CC(C)c1cc2c(cc1O)[C@@]1(C)CCCC(C)(C)[C@@H]1CC2` [Compound 8, ferruginol], the inhibition at 50 µM in data set [2] (read-out: Inhibition rate ± SD (%) (50 μM), MAO-B, 50 μM) worked out at 17.5 ± 1.5%.

In the case of `CC(C)c1cc2c(cc1O)[C@@]1(C)CCCC(C)(C)[C@@H]1C=C2` [Compound 9, 6,7-dehydroferruginol], the inhibition at 50 µM in data set [2] (setting [12]) is 7.04 ± 4.08%.

As a reminder, the viability is a per cent measure of how many cells are alive, often set against a control. For the compound `CC/C=C\C/C=C\C/C=C\CCCCCC(=O)OC` [Compound 14, Methyl (7Z,10Z,13Z)-7,10,13-hexadecatrienoate], in data set [8], the Cytotoxicity entry was “extremely low cytotoxicity”. In addition, the “Neuroprotective effect at various concentrations” value in [9] (0.5–100 μM) is reported as “enhanced cell viability across all tested concentrations, except 50 μM”. Also, the viability at 5 µM in data set [9] (Rattus norvegicus, PC-12, 5 μM (best concentration)) is 93.9%. The compound also displayed a viability at 100 µM in [9] (Rattus norvegicus, PC-12, 100 μM, model group 63.58%) of 87.1%. For the same compound, the inhibition at 50 µM in data set [2] (setting [12]) is greater than 30%. Further, in data set [2] (setting [11]), the IC50 was 201 ± 7.03 µM.

Turning to `CCCCC/C=C\C/C=C\CCCCCCCC(=O)O` [Compound 15, linolic acid], the inhibition at 50 µM in [2] (setting [12]) turned out to be 18 ± 4.32%.

As for `COCc1ccc(C=O)[nH]1` [Compound 16, 5-(methoxymethyl)-1H-pyrrole-2-carboxaldehyde], the inhibition at 50 µM in data set [2] (setting [12]) was determined as 22.2 ± 5.24%.

For `COC(=O)c1ccc(O)cn1` [Compound 17, methyl 5-hydroxypicolinate], in data set [2] (setting [12]), the inhibition at 50 µM turned out to be 17.1 ± 5.06%.

Turning to `O=C(O)c1ccc(O)cc1` [Compound 18, paraben-acid], the inhibition at 50 µM in data set [2] (setting [12]) worked out at 8.29 ± 3.9%.

Take `COc1cc(C(CO)OC)ccc1O` (stereo not drawn) [Compound 19, 4-hydroxy-β,3-dimethoxybenzeneethanol]: in data set [6], the “ABTS+ RSA ± SD (50 μM)” value was determined as 59.17 ± 3.59% and the IC50 was 84.06 ± 0.76 µM. Moreover, the inhibition at 50 µM in data set [2] (setting [12]) was 3.71 ± 4.89%.

Turning to `COc1cc(CCO)ccc1O` [Compound 20, homovanillic alcohol], in data set [6], the “ABTS+ RSA ± SD (50 μM)” value was determined as 57.38 ± 1.01% and the IC50 was found to be 60.5 ± 1.18 µM. The inhibition at 50 µM in [2] (setting [12]) is 2.98 ± 2.8%.

For `COc1cc(C(=O)CCO)ccc1O` [Compound 21, β-hydroxypropiovanillone], in data set [6], the “ABTS+ RSA ± SD (50 μM)” value was found to be 36.36 ± 1.01% and the IC50 is 348 ± 17.5 µM. The inhibition at 50 µM in data set [2] (read-out: Inhibition rate ± SD (%) (50 μM)) was 11.2 ± 1.81%.

Regarding `O=C1C=CCCN1` [Compound 22, 5,6-dihydropyridin-2(1H)-one], the inhibition at 50 µM in data set [2] (setting [12]) worked out at 1.05 ± 3.46%.

Turning to `C#CCN[C@@H]1CCc2ccccc21` [Rasagiline, rasagiline, reference compound], the Cell viability in data set [9] (positive control, abstract: at equivalent concentrations) came out at 88.36%.

For the compound `O=C1O[C@H]([C@@H](O)CO)C(O)=C1O` [Vitamin C, ascorbic acid, reference compound], in data set [10], the “DPPH RSA ± SD (50 μM)” value is reported as 99.97 ± 0.05% and the IC50 worked out at 9.12 ± 0.25 µM. Moreover, in data set [6], the “ABTS+ RSA ± SD (50 μM)” value is on record as 99.80 ± 0.09% and the IC50 is 14.46 ± 0.03 µM.

For isoferulic acid [Compound 6], in data set [10], the “DPPH RSA ± SD (50 μM)” value came out at 36.00 ± 1.01% and the IC50 worked out at 152 ± 1.75 µM. For the same compound, in data set [6], the “ABTS+ RSA ± SD (50 μM)” value is 92.90 ± 0.45% and the IC50 worked out at 18.1 ± 2.49 µM.
